Converted amounts (≈) assume the structure as drawn. Bridge positions count the residues as written; N and C are the ends. Square brackets hold non-standard residues; d marks the D form. Peptide text beside a SMILES is read from it. * marks the point of attachment. X1 = CC[C@H](C)CCCCC(=O)*; Dab = NCC[C@H](N)C(=O)O
Tests used:
[1] = Selectivity ratio of HC5 for hemolytic activity in rabbit erythrocytes to MIC for antibacterial activity against methicillin-resistant Staphylococcus aureus ATCC 43300; assay type: toxicity, cell-based
Staphylococcus aureus [2] = assay: Antibacterial activity against Staphylococcus aureus ATCC 25923 assessed as inhibition of bacterial growth incubated for 16 to 18 hrs by broth microdilution method; assay type: functional; conditions: time 16-18 hrs
Escherichia coli = assay: Antibacterial activity against Escherichia coli ATCC 25922 assessed as inhibition of bacterial growth incubated for 16 to 18 hrs by broth microdilution method; assay type: functional; conditions: time 16-18 hrs
Staphylococcus aureus [3] = assay: Antibacterial activity against methicillin-resistant Staphylococcus aureus ATCC 43300 assessed as inhibition of bacterial growth incubated for 16 to 18 hrs by broth microdilution method; assay type: functional; conditions: time 16-18 hrs
Erythrocyte = assay: Hemolytic activity in rabbit erythrocytes incubated for 1 hr; assay type: toxicity, cell-based, Oryctolagus cuniculus
Acinetobacter baumannii = assay: Antibacterial activity against Acinetobacter baumannii ATCC 19606 assessed as inhibition of bacterial growth incubated for 16 to 18 hrs by broth microdilution method; assay type: functional; conditions: time 16-18 hrs
Pseudomonas aeruginosa = assay: Antibacterial activity against Pseudomonas aeruginosa ATCC 27853 assessed as inhibition of bacterial growth incubated for 16 to 18 hrs by broth microdilution method; assay type: functional; conditions: time 16-18 hrs
Klebsiella pneumoniae = assay: Antibacterial activity against Klebsiella pneumoniae CMCC(B) 46117 assessed as inhibition of bacterial growth incubated for 16 to 18 hrs by broth microdilution method; assay type: functional; conditions: time 16-18 hrs

SMILES: CC[n+]1ccn(-c2ccc(C#Cc3ccc(-n4cc[n+](CC)c4)cc3)cc2)c1.[Br-].[Br-]
- selectivity ratio [1]: 125
- MIC (Staphylococcus aureus [2]): 64 µg/mL
- MIC (Escherichia coli): 8 µg/mL
- MIC (Staphylococcus aureus [3]): 64 µg/mL
- HC5 (Erythrocyte): 8000 µg/mL

SMILES: CCn1cc(C(=O)O)c(=O)c2cc(F)c(N3CCNCC3)cc21 [NORFLOXACIN]
- MIC (Staphylococcus aureus [2]): 1 µg/mL (≈ 3.13 µM)
- MIC (Staphylococcus aureus [3]): 1 µg/mL (≈ 3.13 µM)

SMILES: C(#Cc1ccc(-n2ccnc2)cc1)c1ccc(-n2ccnc2)cc1
- MIC (Staphylococcus aureus [2]): > 500 µg/mL
- MIC (Escherichia coli): > 500 µg/mL
- MIC (Staphylococcus aureus [3]): > 500 µg/mL

SMILES: CC[C@H](C)CCCCC(=O)N[C@@H](CCN)C(=O)N[C@H](C(=O)N[C@@H](CCN)C(=O)N[C@H]1CCNC(=O)[C@H]([C@@H](C)O)NC(=O)[C@H](CCN)NC(=O)[C@H](CCN)NC(=O)[C@H](CC(C)C)NC(=O)[C@@H](Cc2ccccc2)NC(=O)[C@H](CCN)NC1=O)[C@@H](C)O (X1-[Dab]T[Dab][Dab][Dab][dF]L[Dab][Dab]T; lactam 4-C)
- MIC (Acinetobacter baumannii): 1 µg/mL (≈ 0.831 µM)
- MIC (Pseudomonas aeruginosa): 1 µg/mL (≈ 0.831 µM)
- MIC (Escherichia coli): 1 µg/mL (≈ 0.831 µM)
- MIC (Klebsiella pneumoniae): 1 µg/mL (≈ 0.831 µM)

SMILES: C(#Cc1ccc(-n2cc[n+](Cc3ccccc3)c2)cc1)c1ccc(-n2cc[n+](Cc3ccccc3)c2)cc1.[Br-].[Br-]
- selectivity ratio [1]: 200
- MIC (Staphylococcus aureus [2]): 0.5 µg/mL
- MIC (Escherichia coli): 2 µg/mL
- MIC (Staphylococcus aureus [3]): 1 µg/mL
- HC5 (Erythrocyte): 200 µg/mL

SMILES: CCCC[n+]1ccn(-c2ccc(C#Cc3ccc(-n4cc[n+](CCCC)c4)cc3)cc2)c1.[Br-].[Br-]
- selectivity ratio [1]: 500
- MIC (Staphylococcus aureus [2]): 2 µg/mL
- MIC (Escherichia coli): 8 µg/mL
- MIC (Staphylococcus aureus [3]): 4 µg/mL
- HC5 (Erythrocyte): 2000 µg/mL

Reference: ChEMBL document CHEMBL5120961, “N-Arylimidazoliums as Highly Selective Biomimetic Antimicrobial Agents” (J Med Chem, 2022)
